A word on the IC50: it is the concentration at which inhibition is half-maximal.

In assay [1] the target is T1, CH1 domain of p300 and the C-TAD domain of HIF-1α (Homo sapiens, UniProt Q09472). The assay is described as follows: HIF-1α/p300 assay, dose–response version of the screening assay. Format: binding. Conditions: for inhibition of the protein–protein interaction: at 500 μM (high test concentration).
In assay [2] the target is T1, CH1 domain of p300 and the C-TAD domain of HIF-1α. To be noted: earlier report; cited from earlier work.
In assay [3] the test system is chloroquine-resistant (W2) strain of Plasmodium falciparum. The assay can be described thus: Antimalarial inhibitory activity, chloroquine-resistant. Format: cell-based. Conditions: P. falciparum W2 strain.
The subject of assay [4] is chloroquine-sensitive (D6) strain of Plasmodium falciparum. The assay is described as follows: Antimalarial inhibitory activity, chloroquine-sensitive. Conditions: P. falciparum D6 strain. Type of assay: cell-based.

T1 sequence (Q09472 331-417 limits assumed): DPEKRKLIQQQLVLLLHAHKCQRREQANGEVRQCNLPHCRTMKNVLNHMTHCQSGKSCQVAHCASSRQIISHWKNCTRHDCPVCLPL

Take `COc1ccc(C2(c3[nH]c(N)nc3-c3ccc(O)cc3)N=C3N=CC=C4c5ccccc5N=C2N43)cc1` (stereo not drawn) [compound 1, eudistidine C]: in assay [1], the “inhibition of the protein–protein interaction” value is “approximately 48%”.
`COc1ccc(C2(O)N=C3N=CC=C4c5ccccc5N=C2N43)cc1` (stereo not drawn) [compound 2, eudistidine A]: the “inhibition of the protein–protein interaction between p300 and HIF-1α (in words)” value in assay [2] was “inhibited”. The results for the half-maximal inhibitory concentration (IC50) in assay [3] and in assay [4] were 1100 nM and 1400 nM, respectively. Besides, the “antimalarial effect (in words)” value in assay [3] and in assay [4] was “significant antimalarial effects” in each case.
With (+)-(R)-eudistidine C [1a], the “antimalarial effect (in words)” value in assay [3] and in assay [4] was “significant antimalarial effects” in each case. The “inhibition of the protein–protein interaction” value in assay [1] worked out at 27%.
For (−)-(S)-eudistidine C [1b], the “antimalarial effect (in words)” value in assay [3] and in assay [4] was “significant antimalarial effects” in each case. The 50% inhibitory concentration (IC50) in assay [1] (HIF-1α/p300 assay) was found to be 276000 nM.
